According to US20060002911A1, “Association between a ppar ligand and an antioxidant agent and use thereof for treating obesity” (priority 2002, published 2006):

Conditions: ob/ob mice, intraperitoneal route once a day for 14 days
Method: Male C57 Black 6 ob/ob mice from 8 to 12 weeks old were used. […] After being weighed, the mice were treated with rosiglitazone (antidiabetic agent) on its own or in association with coenzyme Q10. […] In addition, the solution was pre-heated before injection. The mice were weighed every day and the weight obtained after 14 days of treatment was recorded.

In the case of `CN(CCOc1ccc(CC2SC(=O)NC2=O)cc1)c1ccccn1` (centres unmarked) [rosiglitazone], the “increase in the weight of the mice” value was “greater than or equal to 5 grams” and the “increase in weight relative to initial weight” value (more than initial weight) was “about 10%”.
